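Five compound concentrations were applied to cells in 96-well plates for 48 hours; endpoints were derived by simple linear interpolation of the resulting dose-response curve. GI50 = concentration required for 50% inhibition of growth.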 The source made the active and inactive calls. Rule as the data show it: active = GI50 up to about 1.1 µM and inactive = higher.
Tests used:
Assay in all cases: NCI tumour cell line growth inhibition, 48 h
786-0 = system: 786-0
A498 = system: A498
A549 = system: A549
ACHN = system: ACHN
CAKI-1 = system: CAKI-1
CCRF-CEM = system: CCRF-CEM
COLO 205 = system: COLO 205
DLD-1 = system: DLD-1
DMS-114 = system: DMS-114
DMS-273 = system: DMS-273
EKVX = system: EKVX
HCC 2998 = system: HCC 2998
HCT-116 = system: HCT-116
HCT-15 = system: HCT-15
HL-60 = system: HL-60
HOP-18 = system: HOP-18
HOP-62 = system: HOP-62
HT-29 = system: HT-29
IGROV-1 = system: IGROV-1
K562 = system: K562
KM-20L2 = system: KM-20L2
KM12 = system: KM12
LOX IMVI = system: LOX IMVI
LXFL 529 = system: LXFL 529
M14 = system: M14
M19-MEL = system: M19-MEL
MOLT-4 = system: MOLT-4
Malme-3M = system: Malme-3M
NCI-H226 = system: NCI-H226
NCI-H23 = system: NCI-H23
NCI-H460 = system: NCI-H460
NCI-H522 = system: NCI-H522
OVCAR-3 = system: OVCAR-3
OVCAR-4 = system: OVCAR-4
OVCAR-5 = system: OVCAR-5
OVCAR-8 = system: OVCAR-8
RPMI-8226 = system: RPMI-8226
RXF 393 = system: RXF 393
RXF 631 = system: RXF 631
SF-268 = system: SF-268
SF-295 = system: SF-295
SF-539 = system: SF-539
SK-MEL-28 = system: SK-MEL-28
SK-MEL-2 = system: SK-MEL-2
SK-MEL-5 = system: SK-MEL-5
SK-OV-3 = system: SK-OV-3
SN12C = system: SN12C
SNB-19 = system: SNB-19
SNB-75 = system: SNB-75
SR = system: SR
SW-620 = system: SW-620
TK-10 = system: TK-10
U-251 = system: U-251
UACC-257 = system: UACC-257
UACC-62 = system: UACC-62
UO-31 = system: UO-31
XF498 = system: XF498
BT-549 = system: BT-549
DU-145 = system: DU-145
HOP-92 = system: HOP-92
Hs-578T = system: Hs-578T
MCF7 = system: MCF7
MDA-MB-231 = system: MDA-MB-231
MDA-MB-435 = system: MDA-MB-435
MDA-N = system: MDA-N
NCI/ADR-RES = system: NCI/ADR-RES
PC-3 = system: PC-3
SNB-78 = system: SNB-78
T47D = system: T47D

SMILES: O=C(Nc1ccc(Cl)cc1)c1cc([N+](=O)[O-])ccc1O
- GI50 (786-0): 3.76 µM (inactive)
- GI50 (A498): 2.47 µM (inactive)
- GI50 (A549): 4.62 µM (inactive)
- GI50 (ACHN): 3.2 µM (inactive)
- GI50 (CAKI-1): 4.02 µM (inactive)
- GI50 (CCRF-CEM): 2.64 µM (inactive)
- GI50 (COLO 205): 3.27 µM (inactive)
- GI50 (DLD-1): 3.71 µM (inactive)
- GI50 (DMS-114): 2.35 µM (inactive)
- GI50 (DMS-273): 5.55 µM (inactive)
- GI50 (EKVX): 3.85 µM (inactive)
- GI50 (HCC 2998): 2.32 µM (inactive)
- GI50 (HCT-116): 3.37 µM (inactive)
- GI50 (HCT-15): 6.79 µM
- GI50 (HL-60): 2.19 µM (inactive)
- GI50 (HOP-18): 1.58 µM (inactive)
- GI50 (HOP-62): 2.49 µM (inactive)
- GI50 (HT-29): 3.62 µM (inactive)
- GI50 (IGROV-1): 3.27 µM (inactive)
- GI50 (K562): 2.67 µM (inactive)
- GI50 (KM-20L2): 4.49 µM (inactive)
- GI50 (KM12): 4.68 µM (inactive)
- GI50 (LOX IMVI): 3.29 µM (inactive)
- GI50 (LXFL 529): 2.9 µM (inactive)
- GI50 (M14): 3.65 µM (inactive)
- GI50 (M19-MEL): 3.52 µM (inactive)
- GI50 (MOLT-4): 2.58 µM (inactive)
- GI50 (Malme-3M): 2.13 µM (inactive)
- GI50 (NCI-H226): 3.55 µM (inactive)
- GI50 (NCI-H23): 2.64 µM (inactive)
- GI50 (NCI-H460): 3.01 µM (inactive)
- GI50 (NCI-H522): 2.09 µM (inactive)
- GI50 (OVCAR-3): 2.67 µM (inactive)
- GI50 (OVCAR-4): 4.52 µM (inactive)
- GI50 (OVCAR-5): 4.53 µM (inactive)
- GI50 (OVCAR-8): 4.33 µM (inactive)
- GI50 (RPMI-8226): 2.33 µM (inactive)
- GI50 (RXF 393): 1.77 µM (inactive)
- GI50 (RXF 631): 2.9 µM (inactive)
- GI50 (SF-268): 4.97 µM (inactive)
- GI50 (SF-295): 4.95 µM (inactive)
- GI50 (SF-539): 3.34 µM (inactive)
- GI50 (SK-MEL-28): 3.33 µM (inactive)
- GI50 (SK-MEL-2): 2.61 µM (inactive)
- GI50 (SK-MEL-5): 2.8 µM (inactive)
- GI50 (SK-OV-3): 4.69 µM (inactive)
- GI50 (SN12C): 4.07 µM (inactive)
- GI50 (SNB-19): 3.77 µM (inactive)
- GI50 (SNB-75): 3.84 µM (inactive)
- GI50 (SR): 5.57 µM (inactive)
- GI50 (SW-620): 5.07 µM (inactive)
- GI50 (TK-10): 5.58 µM (inactive)
- GI50 (U-251): 3.27 µM (inactive)
- GI50 (UACC-257): 4.84 µM (inactive)
- GI50 (UACC-62): 2.29 µM (inactive)
- GI50 (UO-31): 2.6 µM (inactive)
- GI50 (XF498): 2.82 µM (inactive)

SMILES: O=c1c2ccccc2n2cnc3ccc(NCCNCCO)c1c32
- GI50 (786-0): 0.889 µM (active)
- GI50 (A498): 1.71 µM (inactive)
- GI50 (A549): 1.05 µM (active)
- GI50 (ACHN): 0.836 µM (active)
- GI50 (BT-549): 3.66 µM (inactive)
- GI50 (CAKI-1): 2.43 µM (inactive)
- GI50 (CCRF-CEM): 1.22 µM (inactive)
- GI50 (COLO 205): 0.834 µM (active)
- GI50 (DLD-1): 2.59 µM (inactive)
- GI50 (DMS-114): 2.04 µM (inactive)
- GI50 (DU-145): 0.384 µM (active)
- GI50 (EKVX): 2.56 µM (inactive)
- GI50 (HCC 2998): 1.77 µM (inactive)
- GI50 (HCT-116): 0.798 µM (active)
- GI50 (HCT-15): 3.18 µM
- GI50 (HL-60): 2.42 µM (inactive)
- GI50 (HOP-18): 2.4 µM (inactive)
- GI50 (HOP-62): 1.4 µM (inactive)
- GI50 (HOP-92): 4.24 µM (inactive)
- GI50 (HT-29): 1.06 µM (active)
- GI50 (Hs-578T): 2.37 µM (inactive)
- GI50 (IGROV-1): 1.91 µM (inactive)
- GI50 (K562): 1.34 µM (inactive)
- GI50 (KM-20L2): 1.41 µM (inactive)
- GI50 (KM12): 1.17 µM (inactive)
- GI50 (LOX IMVI): 1.11 µM (active)
- GI50 (LXFL 529): 2.3 µM (inactive)
- GI50 (M14): 2.71 µM (inactive)
- GI50 (M19-MEL): 2.96 µM (inactive)
- GI50 (MCF7): 2.52 µM (inactive)
- GI50 (MDA-MB-231): 2.31 µM (inactive)
- GI50 (MDA-MB-435): 1.52 µM (inactive)
- GI50 (MDA-N): 1.9 µM (inactive)
- GI50 (MOLT-4): 0.359 µM (active)
- GI50 (Malme-3M): 2.36 µM (inactive)
- GI50 (NCI-H226): 1.29 µM (inactive)
- GI50 (NCI-H23): 2.16 µM (inactive)
- GI50 (NCI-H460): 0.536 µM (active)
- GI50 (NCI-H522): 1.49 µM (inactive)
- GI50 (NCI/ADR-RES): 2.81 µM (inactive)
- GI50 (OVCAR-3): 2.19 µM (inactive)
- GI50 (OVCAR-4): 1.44 µM (inactive)
- GI50 (OVCAR-5): 2.02 µM (inactive)
- GI50 (OVCAR-8): 0.855 µM (active)
- GI50 (PC-3): 1.91 µM (inactive)
- GI50 (RPMI-8226): 2.2 µM (inactive)
- GI50 (RXF 393): 0.757 µM (active)
- GI50 (RXF 631): 1.26 µM (inactive)
- GI50 (SF-268): 1.46 µM (inactive)
- GI50 (SF-295): 1.83 µM (inactive)
- GI50 (SF-539): 3.24 µM (inactive)
- GI50 (SK-MEL-28): 3.18 µM (inactive)
- GI50 (SK-MEL-2): 3.03 µM (inactive)
- GI50 (SK-MEL-5): 1.88 µM (inactive)
- GI50 (SK-OV-3): 2.99 µM (inactive)
- GI50 (SN12C): 1.51 µM (inactive)
- GI50 (SNB-19): 3.78 µM (inactive)
- GI50 (SNB-75): 1.86 µM (inactive)
- GI50 (SNB-78): 2.06 µM (inactive)
- GI50 (SR): 0.467 µM (active)
- GI50 (SW-620): 0.589 µM (active)
- GI50 (T47D): 4.76 µM (inactive)
- GI50 (TK-10): 2.92 µM (inactive)
- GI50 (U-251): 2.1 µM (inactive)
- GI50 (UACC-257): 3.37 µM (inactive)
- GI50 (UACC-62): 2.31 µM (inactive)
- GI50 (UO-31): 2.87 µM (inactive)

SMILES: CC1=C2CC[C@@]3(C)C(=CCC3O)C2(C)CCC1=O (some centres undefined)
- GI50 (786-0): > 100 µM (inactive)
- GI50 (A498): 91.6 µM (inactive)
- GI50 (A549): > 100 µM (inactive)
- GI50 (ACHN): > 100 µM (inactive)
- GI50 (CAKI-1): > 100 µM (inactive)
- GI50 (CCRF-CEM): > 100 µM (inactive)
- GI50 (COLO 205): > 100 µM (inactive)
- GI50 (DLD-1): > 100 µM (inactive)
- GI50 (DMS-114): > 100 µM (inactive)
- GI50 (DMS-273): > 100 µM (inactive)
- GI50 (EKVX): 27.1 µM (inactive)
- GI50 (HCC 2998): > 100 µM (inactive)
- GI50 (HCT-116): > 100 µM (inactive)
- GI50 (HCT-15): > 100 µM
- GI50 (HL-60): > 100 µM (inactive)
- GI50 (HOP-18): > 100 µM (inactive)
- GI50 (HOP-62): > 100 µM (inactive)
- GI50 (HOP-92): > 100 µM (inactive)
- GI50 (HT-29): > 100 µM (inactive)
- GI50 (IGROV-1): > 100 µM (inactive)
- GI50 (KM-20L2): > 100 µM (inactive)
- GI50 (KM12): > 100 µM (inactive)
- GI50 (LOX IMVI): > 100 µM (inactive)
- GI50 (LXFL 529): > 100 µM (inactive)
- GI50 (M14): > 100 µM (inactive)
- GI50 (M19-MEL): > 100 µM (inactive)
- GI50 (MOLT-4): > 100 µM (inactive)
- GI50 (Malme-3M): > 100 µM (inactive)
- GI50 (NCI-H226): > 100 µM (inactive)
- GI50 (NCI-H460): > 100 µM (inactive)
- GI50 (NCI-H522): > 100 µM (inactive)
- GI50 (OVCAR-3): > 100 µM (inactive)
- GI50 (OVCAR-4): > 100 µM (inactive)
- GI50 (OVCAR-5): > 100 µM (inactive)
- GI50 (OVCAR-8): > 100 µM (inactive)
- GI50 (RPMI-8226): > 100 µM (inactive)
- GI50 (RXF 393): > 100 µM (inactive)
- GI50 (RXF 631): > 100 µM (inactive)
- GI50 (SF-268): > 100 µM (inactive)
- GI50 (SF-295): > 100 µM (inactive)
- GI50 (SF-539): > 100 µM (inactive)
- GI50 (SK-MEL-28): > 100 µM (inactive)
- GI50 (SK-MEL-5): > 100 µM (inactive)
- GI50 (SK-OV-3): > 100 µM (inactive)
- GI50 (SN12C): > 100 µM (inactive)
- GI50 (SNB-19): > 100 µM (inactive)
- GI50 (SNB-75): 83 µM (inactive)
- GI50 (SNB-78): > 100 µM (inactive)
- GI50 (SR): > 100 µM (inactive)
- GI50 (SW-620): > 100 µM (inactive)
- GI50 (TK-10): > 100 µM (inactive)
- GI50 (U-251): > 100 µM (inactive)
- GI50 (UACC-257): > 100 µM (inactive)
- GI50 (UACC-62): 56.4 µM (inactive)
- GI50 (UO-31): > 100 µM (inactive)

— ChEMBL document CHEMBL1201862, “PubChem BioAssay data set” (2004)
